Test results: patent US6610697B1, “Substituted 2-aryl-3-(heteroaryl)-imidazo[1,2-a]pyrimidines, and related pharmaceutical compositions and methods” (Ortho-McNeil Pharmaceutical, Inc., priority 1999, dated 2003)

Experiments:
[1] = tested on: TNF-α; test: PBMC whole cell assay (LPS/PBMC, TNF-α ELISA); type: cell-based; settings: human PBMC, LPS stimulation overnight
Experimental: Representative compounds of the present invention were tested in an in vitro whole cell assay using peripheral blood mononuclear cells (“PBMC's”) which were obtained from human blood as follows. Freshly obtained venous blood was anticoagulated with heparin, diluted with an equal volume of phosphate buffered saline (“PBS”) and placed in a sterile tube or other container. Aliquots (30 mL) of this mixture were transferred to centrifuge tubes which were underlaid with Ficoll-Hypaque (15 mL). The prepared tubes were centrifuged at 400×g without braking for 30 min at room temperature. Approximately ½ to ⅔ of the platelet layer above the mononuclear cell band was removed with a pipette. The majority of the mononuclear cell layer was carefully removed using a pipette and these PBMC's were diluted with PBS and spun at 600×g for 15 min. The resulting PBMC's were washed with another portion of PBS and spun at 400×g for 10 min at room temperature. The recovered pellets were diluted in low endotoxin RPMI/1% FCS culture medium and gave a cell concentration of 0.5-2.0×10^6 PMBC/mL. A small volume of the suspension was removed for counting on a hemocytometer and the remaining preparation was centrifuged at 200×g for 15 min at room temperature. The recovered pelleted PMBC's were re-suspended in RPMI/1% FCS to a concentration of 1.67×10^6/mL.
To run the assay, the PBMC suspension (180 μL) was transferred to duplicate wells of a 96-well flat-bottom microtiter plate and incubated for 1 h at 37° C. A solution of test compound (10 μL, prepared at 20×the desired final concentration) was added to each well and the plate was incubated for 1 h at 37° C. A solution (10 μL) of LPS in RPMI/1% FCS (200 ng/mL) was added and the wells were incubated overnight at 37° C. The supernate (100 μL) was removed from each well and diluted with RPMI/1% FCS (400 μL). The samples were analyzed for TNF-α using a commercial ELISA kit (Genzyme).

[2] = tested on: LPS-induced TNF-α production; test: In vivo rodent assay, LPS-induced TNF-α production; settings: Mus musculus; BALB/cJ female mice, oral 10 mg/kg, LPS 1 mg/kg i.p. 30 min after dosing, serum TNF-α 1 h later
Experimental: Mice (BALB/cJ females, Jackson Laboratories) were fasted for 30 min. prior to oral dosing with 5-10 mL/kg of a test compound at 5-50 mg/kg. Thirty minutes after dosing, the animals were injected intraperitoneally with LPS at 1 mg/kg and returned to their cages for 1 h. Animals were anesthetized by CO2, exsanguinated by cardiac puncture and whole blood collected (0.1-0.7 mL). The blood was allowed to clot and serum was transferred to a centrifuge tube. This sample was centrifuged, and serum was collected, aliquoted, and frozen at −80° C. Samples were tested by commercial ELISA's for TNF-α (Endogen for mouse TNF-α). The % inhibition of the test compounds was calculated by the following formula: % inhibition=[1-(sample-BKG)/(CTRL-BKG)]×100.

| SMILES | IC50 [1] [nM] | inhibition in vivo at 10 mg/kg [2] [%] |
| --- | --- | --- |
| Nc1ccn2c(-c3ccncc3)c(-c3cccc(Cl)c3)nc2n1 [Compound 25, 2-(3-Chlorophenyl)-3-(4-pyridinyl)imidazo[1,2-a]pyrimidin-7-amine] | 162 | 47 |
| Nc1ccn2c(-c3ccncn3)c(-c3cccc(C(F)(F)F)c3)nc2n1 [Compound 13, 3-(4-Pyrimidinyl)-2-[3-(trifluoromethyl)phenyl]imidazo[1,2-a]pyrimidin-7-amine] | 278 | 85 |
| Nc1ccn2c(-c3ccncc3)c(-c3ccc(F)cc3)nc2n1 [Compound 1, 2-(4-fluorophenyl)-3-(4-pyridinyl)-imidazo[1,2-a]pyrimidin-7-amine] | 49 | 100 |
| Nc1ccn2c(-c3ccncc3)c(-c3ccccc3)nc2n1 [Compound 5, 2-phenyl-3-(4-pyridinyl)-imidazo[1,2-a]pyrimidin-7-amine] | 55 | 100 |
| CSc1nccc(-c2c(-c3ccc(F)cc3)nc3nc(N)ccn23)n1 [Compound 10, 2-(4-Fluorophenyl)-3-[2-(methylthio)-4-pyrimidinyl]imidazo[1,2-a]pyrimidin-7-amine] | 37 | 68 |
| Nc1ccn2c(-c3ccncc3)c(-c3cccc(F)c3)nc2n1 [Compound 2, 2-(3-fluorophenyl)-3-(4-pyridinyl)-imidazo[1,2-a]pyrimidin-7-amine] | 55 | 100 |
| Nc1ccn2c(-c3ccncn3)c(-c3ccccc3)nc2n1 [Compound 16, 2-Phenyl-3-(4-pyrimidinyl)imidazo[1,2-a]pyrimidin-7-amine] | 304 | 73 |
| Nc1ccn2c(-c3ccncc3)c(-c3cccc(C(F)(F)F)c3)nc2n1 [Compound 7, 3-(4-pyridinyl)-2-[3-(trifluoromethyl)phenyl]-imidazo[1,2-a]pyrimidin-7-amine] | 35 | 99 |
| CS(=O)(=O)c1nccc(-c2c(-c3cccc(C(F)(F)F)c3)nc3nc(N)ccn23)n1 [Compound 18, 3-[2-(Methylsulfonyl)-4-pyrimidinyl]-2-[3-(trifluoromethyl)phenyl]imidazo[1,2-a]pyrimidin-7-amine] | 520 | 10 |
| CS(=O)(=O)c1nccc(-c2c(-c3ccccc3)nc3nc(N)ccn23)n1 [Compound 17, 3-[2-(Methylsulfonyl)-4-pyrimidinyl]-2-phenylimidazo [1,2-a]pyrimidin-7-amine] | 3410 | – |
| Nc1ccn2c(-c3ccnc4ccccc34)c(-c3ccc(F)cc3)nc2n1 [Compound 3, 2-(4-fluorophenyl)-3-(4-quinolinyl)-imidazo[1,2-a]pyrimidin-7-amine] | 333 | 26 |
| COc1nccc(-c2c(-c3ccccc3)nc3nc(N)ccn23)n1 [Compound 23, 3-(2-Methoxy-4-pyrimidinyl)-2-phenylimidazo[1,2-a]pyrimidin-7-amine] | 90 | 87 |
| Nc1ccn2c(-c3ccncn3)c(-c3ccc(F)cc3)nc2n1 [Compound 24, 2-(4-Fluorophenyl)-3-(4-pyrimidinyl)imidazo[1,2-a]pyrimidin-7-amine] | 199 | 91 |

Now those with a lower IC50 [1], led by results:

| IC50 [1] [nM] | SMILES | inhibition in vivo at 10 mg/kg [2] [%] |
| --- | --- | --- |
| 6 | Nc1ccn2c(-c3ccnc(NCc4ccccc4)c3)c(-c3ccc(F)cc3)nc2n1 [Compound 6, 2-(4-fluorophenyl)-3-[2-[(phenylmethyl)amino]4-pyridinyl]-imidazo[1,2-a]pyrimidin-7-amine] | 42 |
| 10 | CSc1nccc(-c2c(-c3cccc(F)c3)nc3nc(N)ccn23)n1 [Compound 12, 2-(3-Fluorophenyl)-3-[2-(methylthio)-4-pyrimidinyl]imidazo[1,2-a]pyrimidin-7-amine] | 51 |
| 27 | CSc1nccc(-c2c(-c3cccc(C(F)(F)F)c3)nc3nc(N)ccn23)n1 [Compound 11, 3-[2-(Methylthio)-4-pyrimidinyl]-2-[3-(trifluoromethyl)phenyl]imidazo[1,2-a]pyrimidin-7-amine] | 38 |
| 14 | COc1ccc(CNc2nccc(-c3c(-c4ccccc4)nc4nc(N)ccn34)n2)cc1 [Compound 20, 3-[[[(4-Methoxyphenyl)methyl]amino]-4-pyrimidinyl]-2-phenylimidazo[1,2-a]pyrimidin-7-amine] | – |
| 0.5 | C[C@H](Nc1nccc(-c2c(-c3cccc(C(F)(F)F)c3)nc3nc(N)ccn23)n1)c1ccccc1 [Compound 9, 3-[2-[[(1S)-1-Phenylethyl]amino]4-pyrimidinyl]-2-[3-(trifluoromethyl)phenyl]imidazo[1,2-a]pyrimidin-7-amine] | 97 |
| 21 | Nc1ccn2c(-c3ccncc3)c(-c3ccc(F)c(Cl)c3)nc2n1 [Compound 4, 2-(3-chloro-4-fluorophenyl)-3-(4-pyridinyl)-imidazo[1,2-a]pyrimidin-7-amine] | 100 |
| 1 | C[C@H](Nc1nccc(-c2c(-c3ccc(F)cc3)nc3nc(N)ccn23)n1)C1CCCCC1 [Compound 22, 3-[2-[[(1S)-1-Cyclohexylethyl]amino]-4-pyrimidinyl]-2-(4-fluorophenyl)imidazo[1,2-a]pyrimidin-7-amine] | 74 |
| 0.4 | C[C@H](Nc1nccc(-c2c(-c3ccccc3)nc3nc(N)ccn23)n1)c1ccccc1 [Compound 19, 2-Phenyl-3-[2-[[(1S)-1-phenylethyl]amino]4-pyrimidinyl]imidazo[1,2-a]pyrimidin-7-amine] | 100 |
| 4 | Nc1ccn2c(-c3ccnc(NCc4ccccc4)c3)c(-c3cccc(C(F)(F)F)c3)nc2n1 [Compound 8, 3-[2-[(phenylmethyl)amino]4-pyridinyl]-2-[3-(trifluoromethyl)phenyl]-imidazo[1,2-a]pyrimidin-7-amine] | 19 |
| 28 | CSc1nccc(-c2c(-c3ccccc3)nc3nc(N)ccn23)n1 [Compound 15, 3-[2-(Methylthio)-4-pyrimidinyl]-2-phenylimidazo[1,2-a]pyrimidin-7-amine] | 23 |
| 8 | Nc1ccn2c(-c3ccnc(N4CCCCC4)n3)c(-c3ccccc3)nc2n1 [Compound 14, 2-Phenyl-3-[2-(1-piperidinyl)-4-pyrimidinyl]imidazo[1,2-a]pyrimidin-7-amine] | 63 |
